# Experimental data taken from patent US7244712B2, “Aminoglycoside antibiotics and methods of using same” (priority 2004, dated 2007).
# Like-named read-outs stand apart in the source and are kept apart here.
# How the values were obtained:
# [1] = biological target: bacterial 16S A-site rRNA construct (B), D-RNA; experiment: Fluorescence anisotropy binding, D-RNA bacterial A-site decoding region construct B
# Text: (§1) Experiments were designed to probe the stereospecificity of aminoglycoside binding to the RNA constructs shown in FIG. 9 because these small rRNA constructs mimic ribosomal decoding region RNA function. The three constructs shown include a bacterial 16S A-site rRNA construct (B) (27), its human counterpart (H), and an RNA aptamer (J6f1) selected to bind to the aminoglycoside tobramycin (12,15,16).
# (§2) L-aminoglycoside binding to D-RNA sequences are energetically equivalent to binding the enantiotopic D-aminoglycoside to an L-RNA sequence. Initial binding experiments were carried out using enantiomerically pure L-RNA constructs, B, H, and J6f1 (FIG. 9A-C) and D-aminoglycoside compounds. Circular dichroism spectra of the purified constructs confirm the enantiomeric relationship of the corresponding D-RNA and L-RNA constructs (FIGS. 1A-C). The constructs were tested for aminoglycoside binding using the fluorescence anisotropy method described in Example 4. In these measurements, the fluorescent aminoglycoside CRP bearing a rhodamine chromaphore is used to monitor binding to the decoding region constructs (B and H) and fluorescent aminoglycoside CRT bearing a rhodamine chromaphore was used to monitor binding to RNA construct J6f1 (FIG. 9C). See, for example, Wang, Y. and Rando, R. R. Chem. Biol. (1995) 2, 281-290; Hamasaki, K., Killian, J. Cho, J., and Rando, R. R. Biochemistry (1998) 37, 656-663; and Cho, J. and Rando, R. R. (1999) Biochemistry 38, 8548-8554.
# (§3) 5-Carboxytetramethylrhodamine-labeled paromomycin (CRP) and tobramycin (CRT) concentrations were determined spectroscopically at 550 nm using a molar extinction coefficient of 6.00×10 4 M −1 cm −1. Fluorescence anisotropy measurements were performed on a Perkin-Elmer LS-50B luminescence spectrometer equipped with a thermostat accurate to ±0.1° C. as indicated previously (Wang, Y., Hamasaki, K., & Rando, R. R. (1997) Biochemistry 36, 768-779). The tracer solution was excited at 550 nm and monitored at 580 nm. The integration time was 5 s. […]
# (§4) Equation 1 was used for the determination of the dissociation constant (Kd) for the interactions between RNA or ribosome and CRP. A=A0+DA{(RNA)0+(CRP)0+Kd−({(RNA)0+(CRP)0+Kd}^2−4(RNA)0(CRP)0)½}/2 where A and A0 are the fluorescence anisotropy of CRP in the presence and absence of RNA, respectively, and DA is the difference between the fluorescence anisotropy of CRP in the presence of an extrapolated infinite concentration of RNA minus the fluorescence anisotropy in the absence of RNA. […]
# (§5) Equation 2 is used for the calculation of the KD values in the competition binding assay. […] Both Kd and KD were determined by non-linear curve fitting using the equations described above, and are presented as mean values of three independent measurements.
# 80S ribosome = experiment: Fluorescence anisotropy binding to 80S ribosomes; parameters: species or system yeast (S. cerevisiae); details: yeast ribosomes
# Protocol: (§6) After establishing the lack of stereospecificity in the binding of aminoglycosides to the A-site RNA constructs (FIG. 9A-C) where the binding affinity, KD, is about 0.1 μM to about 100 μM, the stereospecificity of aminoglycoside binding to intact ribosomes was determined. Both yeast and E. coli ribosomes were prepared and aminoglycoside binding was measured using fluorescence anisotropy methods. For example, fluorescence anisotropy methods recited in Wang, Y., and Rando, R. R. Chem. Biol. (1995) 2, 281-290; and Wang, Y., Hamasaki, K., and Rando, R. R. Biochemistry (1997) 36,768-779. CRP was used as the binding probe. […] Binding data reported herein for aminoglycoside compounds with eukaryotic yeast ribosomes are similar to binding data for said aminoglycoside compounds with ribosoimes in bacteria and with eukaryotic A-site rRNA constructs.
# (§7) 5-Carboxytetramethylrhodamine-labeled paromomycin (CRP) and tobramycin (CRT) concentrations were determined spectroscopically at 550 nm using a molar extinction coefficient of 6.00×10 4 M −1 cm −1. Fluorescence anisotropy measurements were performed on a Perkin-Elmer LS-50B luminescence spectrometer equipped with a thermostat accurate to ±0.1° C. as indicated previously (Wang, Y., Hamasaki, K., & Rando, R. R. (1997) Biochemistry 36, 768-779). The tracer solution was excited at 550 nm and monitored at 580 nm. The integration time was 5 s. For every point, 6 measurements were taken, and their average values were used for calculation. Measurements were carried out in a buffer solution containing 150 mM NaCl, 5 mM KCl, 1 mM CaCl2, 1 mM MgCl2, and 20 mM HEPES (pH 7.5). Prior to measurements, RNA constructs were renatured by incubating in binding buffer {150 mM NaCl, 5 mM KCl, 1 mM CaCl2, 1 mM MgCl2, and 20 mM HEPES (pH 7.5)} for 3 minutes at 90° C. followed by slow cooling to 25° C.
# (§8) Equation 1 was used for the determination of the dissociation constant (Kd) for the interactions between RNA or ribosome and CRP. A=A0+DA{(RNA)0+(CRP)0+Kd−({(RNA)0+(CRP)0+Kd}^2−4(RNA)0(CRP)0)½}/2 where A and A0 are the fluorescence anisotropy of CRP in the presence and absence of RNA, respectively, and DA is the difference between the fluorescence anisotropy of CRP in the presence of an extrapolated infinite concentration of RNA minus the fluorescence anisotropy in the absence of RNA. (RNA)0 and (CRP)0 are the initial concentrations of RNA and CRP, respectively.
# (§9) Equation 2 is used for the calculation of the KD values in the competition binding assay. (aminoglycoside)0={KD(A−−A)/Kd(A−A0)+1}{(RNA)0−Kd(A−A0)/(A−−A)−(CRP)0(A−A0)/(A−−A)} where KD is the dissociation constant between the RNA and the aminoglycosides; (aminoglycoside)0 is the initial concentration of the aminoglycosides; AL is anisotropy of completely bound tracer. Both Kd and KD were determined by non-linear curve fitting using the equations described above, and are presented as mean values of three independent measurements.
# The purification of yeast 80S ribosomes from S. cerevisiae strain YSB 758 was carried out according to the published procedure (Verschoor, A., Warner, J. R., Srivastava, S., Grassucci, R. A., & Frank, J. (1997) Nucl. Acid Res. 26, 655-661). S. cerevisiea YSB 758 were grown for 12 hrs at 30° C. in 2L of YPD medium, containing: 20 g bacto peptone, 20 g glucose, 10 g yeast extract and 0.15 g tryptophan per 1 L, pH 7.0. The cells were lysed by 5-10 cycles of 1 min vigorous shaking with glass beads with a vortex, followed by cooling on ice. Clarified cell extract (about 9 mL total, used in 6 portions in 1.5 mL aliqouts) was carefully loaded on top of 2 mL of a cushion, composed of 10% sucrose and 5% ammonium sulfate dissolved in buffer YR1 (20 mM HEPES pH=7.4, 16 mM magnesium chloride, 100 mM potassium chloride, 5 mM DTT, and 0.5 mM EDTA). The ribosomes were collected by centrifugation in Beckman TL100.3 rotor at 75000 rpm for 3 h. The supernatants were carefully discarded and ribosomes were collected in buffer YR1. […]
# [2] = biological target: bacterial 16S A-site rRNA construct (B), L-RNA; experiment: Fluorescence anisotropy binding, L-RNA bacterial A-site decoding region construct B
# Text: as §1, §2, §3, §4, §5
# 70S ribosome = experiment: Fluorescence anisotropy binding to 70S ribosomes; details: E. coli ribosomes
# Protocol: as §6, §7, §8, §9
# The purification of E. coli (E600) 70S ribosomes was carried out according to the published procedure (Lazaro, E., van den Broek, L. A. G. M., Felix, A. S., Ottenheijm, H. C. J., Ballesta, J. P. G. (1991) Biochemistry 30, 9642-9648). E. coli MRE600 were grown for 12 h in 6L of LB medium (10 g trypton, 5 g yeast extract, 5 g NaCl per 1 L, pH 7.0) at 37° C. Crude ribosomes were precipitated from clarified supernatant by 4 h centrifugation at 25,000 rpm in Beckman SW 28 rotor at 4° C. The ribosome pellets were collected in 5 mL of buffer BR1, containing 10 mM HEPES, pH 7.5, 500 mM ammonium acetate, 100 mM magnesium chloride and 2.5 mM DTT. The ribosome suspension was centrifuged for 20 min at 15000 rpm to be clarified. The clarified sample was loaded over two layers of 20% and 40% sucrose in buffer BR1 and centrifuged for 18 hr at 19000 rpm in Beckman SW28 rotor at 4° C. […]
# [3] = biological target: human A-site decoding region construct (H), D-RNA; experiment: Fluorescence anisotropy binding, D-RNA human A-site decoding region construct H
# Text: as §1, §2, §3, §4, §5
# [4] = biological target: human A-site decoding region construct (H), L-RNA; experiment: Fluorescence anisotropy binding, L-RNA human A-site decoding region construct H
# Text: as §1, §2, §3, §4, §5
# RNA aptamer J6f1, L-RNA = experiment: Fluorescence anisotropy binding, L-J6f1 tobramycin binding aptamer
# Text: as §1, §2, §7, §8, §5
# RNA aptamer J6f1, D-RNA = experiment: Fluorescence anisotropy binding, D-J6f1 tobramycin binding aptamer
# Text: as §1, §2, §3, §4, §5
# [5] = test system: E. coli S30 extract, containing 70S ribosomes; experiment: In vitro protein translation (CAT mRNA, 35S methionine incorporation); assay type: biochemical; details: quantitation of gel bands, read-out: IC50, concentration producing 50% inhibition of translation
# Protocol: Protein translation was performed from chloramphenicol acetyl transferase (CAT) mRNA. […] A commercial E. coli ribosomal suspension was supplemented with an E. coli extract containing the required elements for translation. These include translation factors, tRNAs, and aminoacyl tRNA synthases. Plasmid, T7 RNA polymerase and amino acids were added to the reaction mixture, and both transcription and translation steps were performed in the same vial. The effects of the aminoglycosides on the translation process were evaluated by measuring the incorporation of ^35S methionine in the translated chloramphenicol acetyl transferase protein.
# In vitro translation was performed by using PROTEINscript™-PRO (Ambion) kit. […] Reaction mixtures contained appropriate concentrations of antibiotic (neomycin B, D- and L-neamine). The protein was translated from CAT mRNA, transcribed from control DNA template containing CAT gene under control of the T7 promotor. The product, ˜25 kDa chloramphenicol acetyl transferase, was labeled during translation with 1 μCi ^35S methionine (New England Nuclear) per reaction (no cold methionine was added).
# Following the translation, the samples were analyzed by electrophoresis on 4-20% SDS mini-gels (Invitrogen) for 1.5 h at 120V. Gels were fixed with 40% methanol/10% acetic acid and exposed to Molecular Dynamics phosphoimager plates, which were read on a Personal FX phosphoimager (Bio-Rad) and quantitated using QuantityOne™ software.
# [6] = competition with CRP, read-out: Dissociation constant (KD) with 80S ribosome
# [7] = competition with CRP, read-out: Dissociation constant (KD) with 70S ribosome
# [8] = competition with CRP, read-out: Dissociation constant of aminoglycoside complex with D-B
# [9] = competition with CRT, read-out: Dissociation constant of aminoglycoside complex with L-J6f1
# [10] = competition with CRP, read-out: Dissociation constant of aminoglycoside complex with L-B
# [11] = competition with CRP, read-out: Dissociation constant of aminoglycoside complex with D-H
# [12] = competition with CRP, read-out: Dissociation constant of aminoglycoside complex with L-H
# [13] = competition with CRT, read-out: Dissociation constant of aminoglycoside complex with D-J6f1
Compound,Kd (80S ribosome; [6]) [nM],Kd (70S ribosome; [7]) [nM],"Kd [1, 8] [nM]","Kd (RNA aptamer J6f1, L-RNA; [9]) [nM]","Kd [2, 10] [nM]","Kd [3, 11] [nM]","Kd [4, 12] [nM]",other results
5-carboxytetramethyl rhodamine-labeled paromomycin [CRP],,,,,,,,"Kd ([1]; direct binding of fluorescent tracer CRP, read-out: Dissociation constant of CRP complex with D-B): 170 ± 17.5 nM; Kd (80S ribosome; direct binding of CRP, read-out: Dissociation constant (Kd) of CRP with 80S Ribosome): 3.2 ± 0.9 nM; Kd ([2]; direct binding of fluorescent tracer CRP, read-out: Dissociation constant of CRP complex with L-B): 224 ± 22.6 nM; Kd (70S ribosome; direct binding of CRP, read-out: Dissociation constant (Kd) of CRP with 70S Ribosome): 3.7 ± 1.1 nM; Kd ([3]; direct binding of fluorescent tracer CRP, read-out: Dissociation constant of CRP complex with D-H): 1360 ± 180 nM; Kd ([4]; direct binding of fluorescent tracer CRP, read-out: Dissociation constant of CRP complex with L-H): 900 ± 76 nM"
5-carboxytetramethyl rhodamine-labeled tobramycin [CRT],,,,,,,,"Kd (RNA aptamer J6f1, L-RNA; direct binding of fluorescent tracer CRT, read-out: Dissociation constant of CRT complex with L-J6f1): 200 ± 28 nM; Kd (RNA aptamer J6f1, D-RNA; direct binding of fluorescent tracer CRT, read-out: Dissociation constant of CRT complex with D-J6f1): 190 ± 11 nM"
"NCC1OC(OC2C(N)CC(N)C(O)C2O)C(N)C(O)C1O (single isomer, unassigned) [4-Isomer of L-Neamine (ent-3), 4-isomer of L-Neamine]",33000 ± 5840,6400 ± 870,,,,,,
"NCC1OC(OC2C(O)C(N)CC(N)C2O)C(N)C(O)C1O (single isomer, unassigned) [5-Isomer of L-Neamine (ent-2), 5-isomer of L-Neamine]",1530 ± 120,1550 ± 110,,,,,,
"NCC1OC(OC2C(O)C(N)CC(N)C2O)C(N)C(O)C1O [5-Isomer of D-Neamine (2), 5-isomer of D-Neamine]",2220 ± 110,910 ± 130,,,,,,
"NCC1OC(OC2C(N)CC(N)C(O)C2O)C(N)C(O)C1O [6-Isomer of D-Neamine (3), 6-isomer of D-Neamine]",22500 ± 1250,30700 ± 1700,,,,,,
NC[C@@H]1O[C@H](O[C@H]2[C@@H](O)[C@H](O[C@@H]3[C@@H](O)[C@H](N)C[C@H](N)[C@H]3O[C@H]3O[C@H](CO)[C@@H](O)[C@H](O)[C@H]3N)O[C@@H]2CO)[C@H](N)[C@@H](O)[C@@H]1O [Paromomycin],1970 ± 100,1410 ± 150,1650 ± 350,4600 ± 370,6380 ± 270,2200 ± 170,2760 ± 260,
[H]/N=C(/N)N[C@H]1[C@H](O)[C@@H](O)[C@H](O[C@@H]2O[C@@H](C)[C@](O)(C=O)[C@H]2O[C@@H]2O[C@@H](CO)[C@H](O)[C@@H](O)[C@@H]2NC)[C@@H](N/C(N)=N\[H])[C@@H]1O [Streptomycin],30500,,,,,,,Dissociation constant (KD) with 70S ribosome (70S ribosome; competition with CRP): did not exhibit measurable binding
NC[C@H]1O[C@H](O[C@H]2[C@H](O)[C@@H](O[C@H]3O[C@H](CO)[C@@H](O)[C@H](N)[C@H]3O)[C@H](N)C[C@@H]2N)[C@H](N)C[C@@H]1O [Tobramycin],3690 ± 310,1760 ± 380,1400 ± 240,2180 ± 230,4390 ± 370,1570 ± 210,3220 ± 260,"Kd (RNA aptamer J6f1, L-RNA; competition with CRT, listed as tobramycin, read-out: Dissociation constant of aminoglycoside complex with L-J6f1): 2200 nM; Kd (RNA aptamer J6f1, D-RNA; [13]): 5.2 ± 0.42 nM; Kd (RNA aptamer J6f1, D-RNA; read-out: KD of tobramycin with RNA aptamer J6f1): 5 nM"
Neomycin,110 ± 14,140 ± 38,52 ± 1.86,360 ± 21,109 ± 4.6,260 ± 3.6,1410 ± 14,"Kd (70S ribosome; competition with CRP, listed as neomycin B, read-out: Dissociation constant (KD) with 70S ribosome): ~100 nM; Kd (RNA aptamer J6f1, D-RNA; [13]): 5590 ± 1390 nM; IC50 [5]: 15 µM"
